Results from patent US7842695B2, “Substituted pyrazole compounds” (Merck Patent GmbH, priority 2003, dated 2010).

What was measured:
5-HT2A receptors = 5-HT2A receptors (UniProt P14842); assay: in-vitro affinity to 5-HT2A receptors, [3H]ketanserine displacement (Example A1); format: binding
Description: The 5-HT2A receptors are exposed both to [^3H]ketanserine (a substance known for its affinity to the receptor) and also to the test compound. The decrease in the affinity of [^3H]ketanserine to the receptor is an indication of the affinity of the test substance to the 5-HT2A receptor.

5 HT2C receptor = target: T1, 5 HT2C receptor (Homo sapiens, UniProt P28335); assay: affinity to the 5 HT2C receptor; format: binding
T1 sequence (P28335 33-458): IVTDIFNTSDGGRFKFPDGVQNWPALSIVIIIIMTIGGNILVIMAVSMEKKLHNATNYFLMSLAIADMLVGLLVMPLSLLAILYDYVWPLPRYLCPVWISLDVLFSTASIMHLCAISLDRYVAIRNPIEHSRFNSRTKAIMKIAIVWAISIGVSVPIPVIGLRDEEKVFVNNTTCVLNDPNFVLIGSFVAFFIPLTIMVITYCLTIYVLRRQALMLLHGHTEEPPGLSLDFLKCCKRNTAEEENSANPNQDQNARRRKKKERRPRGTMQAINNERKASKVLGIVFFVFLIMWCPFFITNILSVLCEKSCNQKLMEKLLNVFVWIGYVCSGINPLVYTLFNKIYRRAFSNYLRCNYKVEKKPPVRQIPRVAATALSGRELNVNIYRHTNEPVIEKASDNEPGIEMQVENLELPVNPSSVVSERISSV

Row | SMILES | IC50 (5-HT2A receptors) | IC50 (5 HT2C receptor)
1 | Fc1cccc(-c2ccc(-n3ncc(CN4CCN(C5CCCC5)CC4)c3-c3ccco3)cc2)c1 [Example 605, 1-Cyclopentyl-4-[1-(3′-fluorobiphenyl-4-yl)-5-furan-2-yl-1H-pyrazol-4-ylmethyl]piperazine] | 26.8 nM | 2940 nM
2 | CN(C)Cc1cnn(-c2ccc(-c3cccc(F)c3)cc2)c1-c1ccco1 [Example 538, [1-(3′-Fluorobiphenyl-4-yl)-5-furan-2-yl-1H-pyrazol-4-ylmethyl]dimethylamine] | 3.4 nM | 170 nM
3 | OC1CCN(Cc2cnn(-c3ccc(-c4cccc(F)c4)cc3)c2-c2ccco2)C1 (stereo not drawn) [Example 562, 1-[1-(3′-Fluorobiphenyl-4-yl)-5-furan-2-yl-1H-pyrazol-4-ylmethyl]pyrrolidin-3-ol] | 9.1 nM | 530 nM
4 | COc1ccc(-c2ccc(-n3ncc(CN4CCN(C)CC4)c3-c3ccco3)cc2)cc1 [Example 546, 1-[5-Furan-2-yl-1-(4′-methoxybiphenyl-4-yl)-1H-pyrazol-4-ylmethyl]-4-methylpiperazine] | 4.8 nM | 360 nM
5 | CN(C)Cc1cnn(-c2ccc(-c3ccc4c(c3)OCO4)cc2)c1-c1ccco1 [Example 531, [1-(4-Benzo-1,3-dioxol-5-ylphenyl)-5-furan-2-yl-1H-pyrazol-4-ylmethyl]dimethylamine] | 1.4 nM | 74 nM
6 | CCN1CCN(Cc2cnn(-c3ccc(-c4ccc5c(c4)OCO5)cc3)c2-c2ccco2)CC1 [Example 533, 1-[1-(4-Benzo-1,3-dioxol-5-ylphenyl)-5-furan-2-yl-1H-pyrazol-4-ylmethyl]-4-ethylpiperazine] | 1.6 nM | 224 nM
7 | CCN1CCN(Cc2cnn(-c3ccc(-c4ccc(F)cc4)cc3)c2-n2cccc2)CC1 [Example 613, 1-Ethyl-4-[1-(4′-fluorobiphenyl-4-yl)-5-pyrrol-1-yl-1H-pyrazol-4-ylmethyl]piperazine] | 32 nM | 1000 nM
8 | Fc1ccc(-c2ccc(-n3ncc(CN4CCN(C5CCCC5)CC4)c3-c3ccco3)cc2)cc1 [Example 545, 1-Cyclopentyl-4-[1-(4′-fluorobiphenyl-4-yl)-5-furan-2-yl-1H-pyrazol-4-ylmethyl]piperazine] | 4.8 nM | 2000 nM
9 | CN(C)CCN(C)Cc1cnn(-c2ccc(-c3ccc(F)cc3)cc2)c1-c1cccc(Cl)c1 [Example 639, N-[5-(3-Chlorophenyl)-1-(4′-fluorobiphenyl-4-yl)-1H-pyrazol-4-ylmethyl]-N,N′,N′-trimethylethane-1,2-diamine] | 43 nM | 1000 nM
10 | COc1ccccc1-c1c(CN2CCN(C)CC2)cnn1-c1ccc(-c2ccccc2F)cc1 [Example 647, 1-[1-(2′-Fluorobiphenyl-4-yl)-5-(2-methoxyphenyl)-1H-pyrazol-4-ylmethyl]-4-methylpiperazine] | 52 nM | 840 nM
11 | OC1CCN(Cc2cnn(-c3ccc(-c4ccc(F)cc4)cn3)c2-c2ccco2)C1 (stereo not drawn) [Example 614, 1-{1-[5-(4-Fluorophenyl)pyridin-2-yl]-5-furan-2-yl-1H-pyrazol-4-ylmethyl}pyrrolidin-3-ol] | 32 nM | 1000 nM
12 | CN1CCC(N(C)Cc2cnn(-c3ccc(-c4ccc(F)cc4)cc3)c2-c2ccco2)C1 (stereo not drawn) [Example 529, [1-(4′-Fluorobiphenyl-4-yl)-5-furan-2-yl-1H-pyrazol-4-ylmethyl]methyl-(1-methylpyrrolidin-3-yl)amine] | 0.514 nM | 434 nM
13 | CN1CCN(Cc2cnn(-c3ccc(-c4cccc(F)c4)cc3)c2-c2ccco2)CC1 [Example 559, 1-[1-(3′-Fluorobiphenyl-4-yl)-5-furan-2-yl-1H-pyrazol-4-ylmethyl]-4-methylpiperazine] | 8.8 nM | 250 nM
14 | OC1CCN(Cc2cnn(-c3ccc(-c4ccc5c(c4)OCCO5)cc3)c2-c2ccco2)C1 (stereo not drawn) [Example 544, 1-{1-[4-(2,3-Dihydrobenzo-1,4-dioxin-6-yl)phenyl]-5-furan-2-yl-1H-pyrazol-4-ylmethyl}pyrrolidin-3-ol] | 4.3 nM | 470 nM
15 | Fc1ccc(-c2ccc(-n3ncc(CN4CCN(C5CCCC5)CC4)c3-c3ccco3)nc2)cc1 [Example 591, 1-Cyclopentyl-4-{1-[5-(4-fluorophenyl)pyridin-2-yl]-5-furan-2-yl-1H-pyrazol-4-ylmethyl}piperazine] | 20 nM | 1000 nM
16 | CN1CCC(N(C)Cc2cnn(-c3ccc(-c4ccc(F)cc4)cc3)c2-c2ccco2)C1 (stereo not drawn) [Example 543, [1-(4′-Fluorobiphenyl-4-yl)-5-furan-2-yl-1H-pyrazol-4-ylmethyl]methyl-(1-methyl-3-pyrrolidinyl)amine] | 4 nM | 370 nM
17 | CN1CCN(Cc2cnn(-c3ccc(-c4cccn4C(=O)OC(C)(C)C)cc3)c2-c2ccccc2F)CC1 [Example 643, tert-Butyl 2-{4-[5-(2-fluorophenyl)-4-(4-methylpiperazin-1-ylmethyl)pyrazol-1-yl]phenyl}pyrrole-1-carboxylate] | 48 nM | 930 nM

Row | SMILES | IC50 (5-HT2A receptors) | IC50 (5 HT2C receptor)
18 | CN1CCN(Cc2cnn(-c3ccc(-c4ccsc4)cc3)c2-c2ccccc2F)CC1 [Example 574, 1-[5-(2-Fluorophenyl)-1-(4-thiophen-3-ylphenyl)-1H-pyrazol-4-ylmethyl]-4-methylpiperazine] | 14 nM | 520 nM
19 | CCN1CCN(Cc2cnn(-c3ccc(-c4ccc(F)cc4)cc3)c2-c2occc2C)CC1 [Example 536, 1-Ethyl-4-[1-(4′-fluorobiphenyl-4-yl)-5-(3-methyl-2-furanyl)-1H-pyrazol-4-ytmethyl]piperazine] | 3 nM | 1000 nM
20 | CCN(CC)Cc1cnn(-c2ccc(-c3ccc(OC)cc3)cc2)c1-c1ccco1 [Example 601, Diethyl-[5-furan-2-yl-1-(4′-methoxybiphenyl-4-yl)-1H-pyrazol-4-ylmethyl]amine] | 26 nM | 1000 nM
21 | CCN1CCN(Cc2cnn(-c3ccc(-c4ccc(OC)cc4)cc3)c2-c2ccco2)CC1 [Example 551, 1-Ethyl-4-[5-furan-2-yl-1-(4′-methoxybiphenyl-4-yl)-1H-pyrazol-4-ylmethyl]piperazine] | 6.1 nM | 495 nM
22 | CN1CCN(Cc2cnn(-c3ccc(-c4ccc(F)cc4)cc3)c2-c2ccco2)CC1 [Example 532, 1-[1-(4′-Fluorobiphenyl-4-yl)-5-furan-2-yl-1H-pyrazol-4-ylmethyl]-4-methylpiperazine] | 1.48 nM | 190 nM
23 | OC1CCN(Cc2cnn(-c3ccc(-c4ccc(F)cc4)cc3)c2-c2ccccc2Cl)C1 (stereo not drawn) [Example 636, 1-[5-(2-Chlorophenyl)-1-(4′-fluorobiphenyl-4-yl)-1H-pyrazol-4-ylmethyl]pyrrolidin-3-ol] | 42 nM | 1000 nM
24 | Fc1ccccc1-c1c(CN2CCNCC2)cnn1-c1ccc(C(F)(F)F)cn1 [Example 588, 1-[5-(2-Fluorophenyl)-1-(5-trifluoromethylpyridin-2-yl)-1H-pyrazol-4-ylmethyl]piperazine] | 20 nM | 1000 nM
25 | Fc1cccc(-c2ccc(-n3ncc(CN4CCNCC4)c3-c3ccco3)cc2)c1 [Example 541, 1-[1-(3′-Fluorobiphenyl-4-yl)-5-furan-2-yl-1H-pyrazol-4-ylmethyl]piperazine] | 3.6 nM | 150 nM
26 | CN(C)Cc1cnn(-c2ccc(-c3ccc4c(c3)OCCO4)cc2)c1-c1ccco1 [Example 540, {1-[4-(2,3-Dihydrobenzo-1,4-dioxin-6-yl)phenyl]-5-furan-2-yl-1H-pyrazol-4-ylmethyl}dimethylamine] | 3.6 nM | 180 nM
27 | COc1ccc(-c2ccc(-n3ncc(CN4CCC(O)C4)c3-c3ccco3)cc2)cc1 (stereo not drawn) [Example 564, 1-[5-Furan-2-yl-1-(4′-methoxybiphenyl-4-yl)-1H-pyrazol-4-ylmethyl]pyrrolidin-3-ol] | 10 nM | 630 nM
28 | CCN(CC)Cc1cnn(-c2ccc(-c3ccc4c(c3)OCCO4)cc2)c1-c1ccco1 [Example 630, {1-[4-(2,3-Dihydrobenzo-1,4-dioxin-6-yl)phenyl]-5-furan-2-yl-1H-pyrazol-4-ylmethyl}diethylamine] | 38 nM | 900 nM
29 | COc1ccccc1-c1c(CN2CCN(C)CC2)cnn1-c1ccc(-c2cc(F)ccc2F)cc1 [Example 660, 1-[1-(2′,5′-Difluorobiphenyl-4-yl)-5-(2-methoxyphenyl)-1H-pyrazol-4-ylmethyl]-4-methylpiperazine] | 77 nM | 630 nM
30 | CN1CCN(Cc2cnn(-c3ccc(-c4ccsc4)cc3)c2-c2ccccc2)CC1 [Example 610, 1-Methyl-4-[5-phenyl-1-(4-thiophen-3-ylphenyl)-1H-pyrazol-4-ylmethyl]piperazine] | 31 nM | 490 nM
31 | COc1ccc(-c2ccc(-n3ncc(CCN4CCC(O)C4)c3-c3ccco3)cc2)cc1 (stereo not drawn) [Example 571, 1-{2-[5-Furan-2-yl-1-(4′-methoxybiphenyl-4-yl)-1H-pyrazol-4-yl]ethyl}pyrrolidin-3-ol] | 12 nM | 800 nM
32 | CN1CCN(C(=O)c2cnn(-c3ccccc3)c2NC(=O)c2ccccc2F)CC1 [Example 640] | 44 nM | 1000 nM
33 | c1coc(-c2c(CN3CCN(C4CCCC4)CC3)cnn2-c2ccc(-c3ccc4c(c3)OCCO4)cc2)c1 [Example 554, 1-Cyclopentyl-4-{1-[4-(2,3-dihydrobenzo-1,4-dioxin-6-yl)phenyl]-5-furan-2-yl-1H-pyrazol-4-ylmethyl}piperazine] | 7 nM | 1300 nM
